Inhibition data for 44 molecules are collected here from PMC11855827, “High-Throughput Screening of Five Compound Libraries for Anthelmintic Activity and Toxicity Leads to the Discovery of Two Flavonoid Compounds” (International Journal of Molecular Sciences, 2025).

Where a name gives a salt, the structure may show the parent alone. Read-outs that look alike come from different tables or passages of the source.

This assay relates to C. elegans. The assay can be described thus: microbe, parasite or virus in culture. The settings on record: Caenorhabditis elegans.
Where [1] appears, read: 0 h, read-out: Percentage of motility inhibition 0 h, Table S2, C. elegans SS assay, 110 μM, 0 h, averages of 4 data points.
[2] abbreviates: 24 h, read-out: Percentage of motility inhibition 24 h, Table S2, C. elegans SS assay, 110 μM, 24 h, averages of 4 data points.
Where [3] appears, read: 0 h, read-out: Percentage of motility inhibition 0 h.
The mark [4] stands for this setting: 24 h, read-out: Percentage of motility inhibition 24 h.

Usually inhibition stands for the share of the control response that was lost under treatment. As for `CC(C)=CCC[C@](C)(O[C@@H]1O[C@H](CO)[C@@H](O)[C@H](O)[C@H]1O)[C@H]1CC[C@]2(C)[C@@H]1[C@H](O)C[C@@H]1[C@@]3(C)CC[C@H](O)C(C)(C)[C@@H]3[C@@H](O[C@@H]3O[C@H](CO)[C@@H](O)[C@H](O)[C@H]3O)C[C@]12C` [Ginsenoside Rg1], the inhibition at 110 µM is, setting by setting: under setting [1], 0%; under setting [2], 0%.

Take `CC(C)=CCC[C@](C)(O)[C@H]1CC[C@]2(C)[C@@H]1[C@H](O)C[C@@H]1[C@@]3(C)CC[C@H](O)C(C)(C)[C@@H]3[C@@H](O[C@@H]3O[C@H](CO)[C@@H](O)[C@H](O)[C@H]3O[C@@H]3O[C@@H](C)[C@H](O)[C@@H](O)[C@H]3O)C[C@]12C` [Ginsenoside Rg2]: the inhibition at 110 µM reads like this: under setting [1], 8%; under setting [2], 0%.

Turning to `CC(C)=CC/C=C(\C)[C@H]1CC[C@]2(C)[C@@H]1[C@H](O)C[C@@H]1[C@@]3(C)CC[C@H](O[C@@H]4O[C@H](CO)[C@@H](O)[C@H](O)[C@H]4O[C@@H]4O[C@H](CO)[C@@H](O)[C@H](O)[C@H]4O)C(C)(C)[C@@H]3CC[C@]12C` [Ginsenoside Rg5], the inhibition at 110 µM stood at 0% under setting [1] and 2% under setting [2]. For `CC(C)=CCC[C@](C)(O)[C@H]1CC[C@]2(C)[C@@H]1[C@H](O)C[C@@H]1[C@@]3(C)CC[C@H](O)C(C)(C)[C@@H]3[C@@H](O[C@@H]3O[C@H](CO)[C@@H](O)[C@H](O)[C@H]3O)C[C@]12C` [Ginsenoside Rh1], the inhibition at 110 µM by setting is: under setting [1], 0%; under setting [2], 9%. Turning to `CC(C)=CCC[C@](C)(O)[C@H]1CC[C@]2(C)[C@@H]1[C@H](O)C[C@@H]1[C@@]3(C)CC[C@H](O[C@@H]4O[C@H](CO)[C@@H](O)[C@H](O)[C@H]4O)C(C)(C)[C@@H]3CC[C@]12C` [Ginsenoside Rh2], the inhibition at 110 µM is, setting by setting: under setting [1], 34%; under setting [2], 38%. For `CC1(C)C=Cc2c(ccc3c2OC[C@@H](c2ccc(O)cc2O)C3)O1` [Glabridin], in that order: 26% and 6%. For `CC(C)=CCc1cc([C@@H]2CC(=O)c3ccc(O)c(CC=C(C)C)c3O2)ccc1O` [Glabrol], in that order: 11% and 9%. For `COc1cc2c(cc1OC)-c1c(OC)c(OC)cc3c1[C@H](C2)N(C)CC3` [Glauci ne], in that order: 0% and 11%. With `C=C1C(=O)[C@@]23[C@H](O)C[C@@H]4C(C)(C)C(=O)CC[C@@]4(C)[C@@H]2CC[C@@H]1[C@H]3O` [Glaucocalyxin A], the inhibition at 110 µM was 0% under setting [1] and 7% under setting [2]. For `N[C@H]1C(O)O[C@H](CO)[C@@H](O)[C@@H]1O` (stereo partly drawn) [Glucosamine], in that order: 8% and 4%. Turning to `COc1cc2c(=O)c(-c3ccc(O)cc3)coc2cc1O` [Glycitein], the inhibition at 110 µM runs as follows: under setting [1], 0%; under setting [2], 0%. For `CC1(C)[C@@H](O[C@H]2O[C@H](C(=O)O)[C@@H](O)[C@H](O)[C@H]2O[C@@H]2O[C@H](C(=O)O)[C@@H](O)[C@H](O)[C@H]2O)CC[C@]2(C)[C@H]3C(=O)C=C4[C@@H]5C[C@@](C)(C(=O)O)CC[C@]5(C)CC[C@@]4(C)[C@]3(C)CC[C@@H]12` [Glycyrrhizic acid], the inhibition at 110 µM reads like this: under setting [1], 0%; under setting [2], 0%. Take `Cc1cc2c(C(C)C)c(O)c(O)c(C=O)c2c(O)c1-c1c(C)cc2c(C(C)C)c(O)c(O)c(C=O)c2c1O` [Gossypol]: the inhibition at 110 µM by setting is: under setting [1], 0%; under setting [2], 26%.

Regarding `CN(C)Cc1c[nH]c2ccccc12` [Gramine], the inhibition at 110 µM by setting is: under setting [1], 0%; under setting [2], 0%. Turning to `C=C1C(=O)O[C@@H]2C[C@@]3(C)[C@@H](O)C[C@@H](O)C(=C)[C@@H]3C[C@H]12` [Granilin], the inhibition at 110 µM by setting is: under setting [1], 4%; under setting [2], 13%. For `COC1=CC(=O)C[C@@H](C)[C@]12Oc1c(Cl)c(OC)cc(OC)c1C2=O` [Griseofulvin], in that order: 3% and 1%. With `COc1ccccc1O` [Guaiacol], the inhibition at 110 µM under setting [1] was 6% and the inhibition at 110 µM under setting [2] was 10%. For the molecule `COc1ccccc1OCC(O)CO` (stereo not drawn) [Guaifenesin], the inhibition at 110 µM was found to be 46% under setting [1] and 27% under setting [2]. Turning to `C/C=C1\C(=O)C[C@H]2[C@@H]3CCC4=CC(=O)CC[C@]4(C)[C@H]3CC[C@]12C` [Guggulsterone], the inhibition at 110 µM came to 0% under setting [3] and 17% under setting [4]. For the molecule `O=C(O)C1=CCCNC1` [Guvacine hydrochloride], the inhibition at 110 µM was 0% under setting [1] and 0% under setting [2]. In the case of `CC(C)=CCC[C@](C)(O[C@@H]1O[C@H](CO[C@@H]2O[C@H](CO)[C@@H](O)[C@H](O)[C@H]2O)[C@@H](O)[C@H](O)[C@H]1O)[C@H]1CC[C@]2(C)[C@@H]1[C@H](O)C[C@@H]1[C@@]3(C)CC[C@H](O[C@@H]4O[C@H](CO)[C@@H](O)[C@H](O)[C@H]4O)C(C)(C)[C@@H]3CC[C@]12C` [Gypenoside XVII], the inhibition at 110 µM under setting [1] was found to be 4% and the inhibition at 110 µM under setting [2] worked out at 4%. In the case of `CC1(C)CC[C@]2(C(=O)O)CC[C@]3(C)C(=CC[C@@H]4[C@@]5(C)CC[C@H](O)[C@@](C)(C=O)[C@@H]5CC[C@]43C)[C@@H]2C1` [Gypsogenin], the inhibition at 110 µM worked out at 10% under setting [1] and 10% under setting [2]. Take `O=C(CC1NCCCC1O)Cn1cnc2cc(Br)c(Cl)cc2c1=O` (stereo not drawn) [Halofuginone]: the inhibition at 110 µM by setting is: under setting [1], 18%; under setting [2], 11%. In the case of `Cc1nccc2c1[nH]c1ccccc12` [Harmane], the inhibition at 110 µM is, setting by setting: under setting [1], 0%; under setting [2], 6%. As for `COc1ccc2c(c1)[nH]c1c(C)nccc12` [Harmine], the inhibition at 110 µM worked out at 36% under setting [3] and 4% under setting [4]. Take `Cc1[nH]ccc2c1[nH]c1cc(=O)ccc12` [Harmol]: the inhibition at 110 µM was found to be 0% under setting [1] and 0% under setting [2]. In the case of `C[C@]1(OC(=O)/C=C/c2ccccc2)C[C@@H](O)[C@]2(O)C=CO[C@@H](O[C@@H]3O[C@H](CO)[C@@H](O)[C@H](O)[C@H]3O)[C@@H]21` [Harpagoside], the inhibition at 110 µM under setting [1] turned out to be 9% and the inhibition at 110 µM under setting [2] turned out to be 30%. Take `COC(=O)C[C@](O)(CCC(C)(C)O)C(=O)O[C@@H]1C(OC)=C[C@]23CCCN2CCc2cc4c(cc2[C@H]13)OCO4` [Harringtonine]: the inhibition at 110 µM under setting [2] stood at 0%. In the case of `C[C@@H]1O[C@@H](O[C@H]2[C@H](O[C@H]3CC[C@]4(C)[C@H]5CC=C6[C@@H]7CC(C)(C)CC[C@]7(C(=O)O)CC[C@@]6(C)[C@]5(C)CC[C@H]4C3(C)C)OC[C@H](O[C@@H]3O[C@H](CO)[C@@H](O)[C@H](O)[C@H]3O)[C@@H]2O)[C@H](O)[C@H](O)[C@H]1O` [Hederacolchiside A1], the inhibition at 110 µM under setting [1] is 0% and the inhibition at 110 µM under setting [2] came to 0%.

For `CC1(C)CC[C@]2(C(=O)O)CC[C@]3(C)C(=CC[C@@H]4[C@@]5(C)CC[C@H](O)[C@@](C)(CO)[C@@H]5CC[C@]43C)[C@@H]2C1` [Hederagenin], the inhibition at 110 µM under setting [3] worked out at 30% and the inhibition at 110 µM under setting [4] stood at 21%.

With `C[C@@H]1O[C@@H](O[C@H]2[C@H](O[C@H]3CC[C@]4(C)[C@H]5CC=C6[C@@H]7CC(C)(C)CC[C@]7(C(=O)O[C@@H]7O[C@H](CO[C@@H]8O[C@H](CO)[C@@H](O[C@@H]9O[C@@H](C)[C@H](O)[C@@H](O)[C@H]9O)[C@H](O)[C@H]8O)[C@@H](O)[C@H](O)[C@H]7O)CC[C@@]6(C)[C@]5(C)CC[C@H]4C3(C)C)OC[C@H](O)[C@@H]2O)[C@H](O)[C@H](O)[C@H]1O` [Hederasaponin B], the inhibition at 110 µM under setting [1] came to 11% and the inhibition at 110 µM under setting [2] came out at 3%. With `O=c1c(O)c(-c2ccc(O)cc2)oc2c(O)c(O)cc(O)c12` [Herbacetin], the inhibition at 110 µM worked out at 4% under setting [3] and 13% under setting [4]. Regarding `COc1ccc([C@@H]2CC(=O)c3c(O)cc(O)cc3O2)cc1O` [Hesperetin], the inhibition at 110 µM runs as follows: under setting [1], 21%; under setting [2], 5%.

As to `CCCCC(O)(Cn1cncn1)c1ccc(Cl)cc1Cl` (stereo not drawn) [Hexaconazole], the inhibition at 110 µM was 14% under setting [1] and 22% under setting [2]. `CCCCC(CC)CN1CN(CC(CC)CCCC)CC(C)(N)C1` (stereo not drawn) [Hexetidine]: the inhibition at 110 µM is 46% under setting [1] and 39% under setting [2].

With `O=C(O)[C@H]1O[C@@H](Oc2c(O)cc(O)c3c(=O)c(O)c(-c4ccc(O)c(O)c4)oc23)[C@H](O)[C@@H](O)[C@@H]1O` [Hibifolin], the inhibition at 110 µM by setting is: under setting [1], 6%; under setting [2], 1%. For `COc1c(O)cc2oc(-c3ccc(O)cc3)cc(=O)c2c1O` [Hispidulin], the inhibition at 110 µM under setting [3] turned out to be 0% and the inhibition at 110 µM under setting [4] was found to be 33%. For `NCCc1c[nH]cn1` [Histamine], the inhibition at 110 µM is, setting by setting: under setting [1], 5%; under setting [2], 6%.

With `CN(C)CCc1ccc(O)cc1` [Hordenine], the inhibition at 110 µM is, setting by setting: under setting [1], 28%; under setting [2], 10%.

Take `CC1=C[C@H]2Cc3[nH]c(=O)ccc3[C@]3(C1)NCCC[C@H]23` [Huperzine B]: the inhibition at 110 µM reads like this: under setting [3], 18%; under setting [4], 8%.

Turning to `CCN(CC)CCNc1ccc(CO)c2sc3ccccc3c(=O)c12` [Hycanthone], the inhibition at 110 µM amounted to 31% under setting [1] and 26% under setting [2]. The like results for `COc1ccc2c(c1OC)C(=O)O[C@@H]2[C@H]1c2cc3c(cc2CCN1C)OCO3` [Hydrastine] were, in that order, 0% and 19%. In the case of `CN1CCc2cc3c(cc2C1O)OCO3` (stereo not drawn) [Hydrastinine], the inhibition at 110 µM is, setting by setting: under setting [1], 1%; under setting [2], 4%.

For the molecule `CC[C@H]1CN2CC[C@H]1C[C@H]2[C@H](O)c1ccnc2ccc(OC)cc12` [Hydroquinine], the inhibition at 110 µM runs as follows: under setting [1], 0%; under setting [2], 0%.
